Assay results: PubChem BioAssay AID652053 (Broad Institute, 2013)

These compounds were tested on Huh7 psiCHECK-miR122 Renilla luciferase reporter, 48 h (assay: miR-122 inhibitors in Huh7 reporter cells, dose response, cell-based, Huh7 psiCHECK-miR122, Renilla luciferase, cherry-pick (AID 652053)).
Cc1ccccc1CC1(C)C(=O)Nc2ccc(S(=O)(=O)NC3CCCCC3)cc21 (stereo unspecified) was tested, and the AC40 was 2.69 µM.
With CCC(C(=O)Nc1ccc(N2CCOCC2)c(S(=O)(=O)Nc2ccccc2OC)c1)c1ccccc1 (stereo unspecified) the AC40 was 1.11 µM.
Compound COc1cccc(C(=O)N2C[C@H]3[C@@H](c4ccccc42)[C@@H](CO)N3C(=O)c2ccc(F)cc2)c1 has an AC40 of 2.16 µM.
For CCOc1ccc(Br)cc1S(=O)(=O)Nc1cccc(S(=O)(=O)N(C)c2ccccc2)c1, the AC40 was 3.18 µM.
For C[C@H](CO)N1C[C@H](C)[C@H](CN(C)Cc2ccc(C(=O)Nc3ccccc3N)cc2)Oc2ccc(NC(=O)Nc3ccc4c(c3)OCO4)cc2CC1=O, the AC40 was 8.06 µM.
With CCOc1cc(N2CCOCC2)c(OCC)cc1NS(=O)(=O)c1ccc(Cl)s1 the AC40 was 32.9 µM.
In the case of Cc1ccc(C)c(S(=O)(=O)Nc2cc3c4c(c2)CC(=O)N4CCC3)c1, the AC40 is reported as 1.88 µM.
Work on CCOC(=O)Nc1nc(-c2ccccc2)c(C(=O)c2ccc(Cl)cc2)s1 yielded an AC40 of 13.8 µM.
CCN(Cc1ccccc1)C(=O)c1[nH]c2ccc(OC)cc2c1C gave an AC40 of 12 µM.
CCCNC(=O)NC[C@@H]1[C@@H](c2ccc(C3=CCCC3)cc2)[C@H](CO)N1C(=O)CC was tested, and the AC40 was 5.75 µM.
With O=S(=O)(NCC1CCCO1)c1ccc(Cl)c(C(F)(F)F)c1 (stereo unspecified) the AC40 was 7.84 µM.
Work on O=C(c1ccccc1F)N1CC[C@@H]2[C@@H](CO)Nc3ccc(-c4cccc(F)c4)cc3[C@@H]21 yielded an AC40 of 1.29 µM.
Work on COc1ccc(OC)c(S(=O)(=O)Nc2ccc(C(C)=O)cc2)c1 yielded an AC40 of 1.58 µM.
Compound C[C@H](CO)N1C[C@H](C)[C@H](CN(C)Cc2ccc(C(=O)Nc3ccccc3N)cc2)Oc2ccc(NC(=O)Nc3ccccc3)cc2CC1=O has an AC40 of 5.91 µM.
CCCCNS(=O)(=O)c1ccc2nc(-c3cccnc3)cc(C(=O)NC(C)CC)c2c1 (stereo unspecified) gave an AC40 of 0.387 µM.
O=C(OCCN=C1NS(=O)(=O)c2ccccc21)c1ccccc1 was tested, and the AC40 was 9.59 µM.
COc1ccc(S(=O)(=O)Nc2ccc(F)cc2)c(C)c1C was tested, and the AC40 was 0.922 µM.
Work on Cc1ccc(S(=O)(=O)NCc2ccco2)c(C)c1C yielded an AC40 of 1.79 µM.
With COc1ccc(CN(C)C[C@H]2Oc3c(NC(=O)NC4CCCCC4)cccc3C(=O)N([C@H](C)CO)C[C@@H]2C)cc1 the AC40 was 5.06 µM.
With CCN(CC)c1ccc(NC(=O)c2ccccn2)cc1S(=O)(=O)Nc1ccccc1OC the AC40 was 4.42 µM.
Work on COc1cccc(N2CCN(C(=O)c3ccc(CS(=O)c4ccccc4Cl)o3)CC2)c1 (stereo unspecified) yielded an AC40 of 15.8 µM.
Compound Cc1ccc(S(=O)(=O)Nc2ccc3nc(N)sc3c2)cc1 has an AC40 of 2 µM.
CCOC(=O)c1ccc(S(=O)(=O)NC2CCCCCCC2)n1C gave an AC40 of 3.76 µM.
For CC(=O)N1CCSc2ccc(S(=O)(=O)Nc3ccc(C)cc3)cc21, the AC40 was 4.2 µM.
With C[C@H](CO)N1C[C@H](C)[C@@H](CN(C)Cc2ccc(Cl)c(Cl)c2)Oc2c(NS(=O)(=O)c3ccccc3)cccc2C1=O the AC40 was 2.54 µM.
For CC(=O)N1CCSc2ccc(S(=O)(=O)NCCc3ccc(Cl)cc3)cc21, the AC40 was 4.57 µM.
Cc1ccc(NS(=O)(=O)c2cc(C(=O)NCc3ccncc3)ccc2C)cc1 was tested, and the AC40 was 2.82 µM.
Work on CNC(=S)Nc1ccc(N2CCCC2)c(S(=O)(=O)Nc2ccc(OC)cc2)c1 yielded an AC40 of 1.31 µM.
Compound C[C@@H]1CN([C@H](C)CO)C(=O)c2cccc(NC(=O)C3CCCCC3)c2O[C@@H]1CN(C)Cc1ccc(C(=O)Nc2ccccc2N)cc1 has an AC40 of 6.1 µM.
Work on C[C@H](CO)N1C[C@H](C)[C@H](CN(C)Cc2ccc(C(=O)Nc3ccccc3N)cc2)Oc2ccc(NC(=O)NC3CCCCC3)cc2CC1=O yielded an AC40 of 16.2 µM.
Cc1ccc(C(=O)NCc2ccncc2)cc1S(=O)(=O)Nc1cccc(C)c1C gave an AC40 of 1.93 µM.
Work on Cc1cc(C)nc(N/C(=N\S(=O)(=O)Cc2ccccc2)Nc2ccccc2Br)n1 yielded an AC40 of 8.51 µM.
For CCOc1ccccc1CN(Cc1ccco1)S(=O)(=O)c1ccc(-n2cnnn2)c(OC)c1, the AC40 was 4.36 µM.
Work on COc1ccc(S(=O)(=O)N(C)C[C@H]2Oc3cc(C#CC4CCCC4)ccc3S(=O)(=O)N([C@H](C)CO)C[C@@H]2C)cc1 yielded an AC40 of 1.58 µM.
In the case of CCOc1ccc(S(=O)(=O)NCCN2CCOCC2)c2ccccc12, the AC40 is reported as 1.14 µM.
O=S(=O)(c1ccccc1)N(CC(O)COc1ccccc1)c1ccccc1 (stereo unspecified) was tested, and the AC40 was 18.9 µM.
COc1ccc(Cl)cc1S(=O)(=O)NCc1cccnc1 gave an AC40 of 14.5 µM.
In the case of Cc1nc2ccc(NS(=O)(=O)c3c(C)c(C)cc(C)c3C)cc2s1, the AC40 is reported as 0.68 µM.
For COc1ccc(S(=O)(=O)NCCc2c(C)nn(C)c2Oc2ccccc2)cc1, the AC40 was 4.82 µM.
Work on Cc1ccc(CN2CCSc3ccc(C(=O)NCc4cccnc4)cc32)cc1 yielded an AC40 of 10.6 µM.
COC(=O)c1cc(S(=O)(=O)Nc2cc(OC)cc(OC)c2)cn1C was tested, and the AC40 was 2.37 µM.
C[C@H](CO)N1C[C@H](C)[C@@H](CN(C)Cc2ccc3c(c2)OCO3)Oc2c(NC(=O)C3CCOCC3)cccc2C1=O was tested, and the AC40 was 9.34 µM.
CN1C(=O)c2cc(NC(=O)Cc3ccccc3)ccc2OC[C@@H]2O[C@H](CC(=O)NCC3CC3)CC[C@@H]21 showed an AC40 of 0.512 µM.
COc1ccccc1NS(=O)(=O)c1cc(NC(=O)c2cc(=O)[nH]c3ccccc23)ccc1N1CCOCC1 was tested, and the AC40 was 1.01 µM.
For COc1ccc(NS(=O)(=O)c2cc(NS(=O)(=O)c3cccs3)ccc2C)cc1, the AC40 was 4.04 µM.
With COc1cccc(N2CCN(C(=O)c3oc4ccccc4c3NC(=O)Cc3ccc(OC)c(OC)c3)CC2)c1 the AC40 was 1.62 µM.
In the case of C[C@H](CO)N1C[C@H](C)[C@@H](CN(C)Cc2ccc3c(c2)OCO3)Oc2c(NC(=O)NC3CCCCC3)cccc2C1=O, the AC40 is reported as 2.53 µM.
Cc1ccc(S(=O)(=O)Nc2cccc(S(=O)(=O)N3CCCC3)c2)cc1C gave an AC40 of 1.03 µM.
O=C(C(=O)N(Cc1ccccc1)Cc1ccccc1)c1c(-c2ccccc2)[nH]c2ccccc12 gave an AC40 of 1 µM.
Compound C[C@H](CO)N1C[C@H](C)[C@@H](CN(C)Cc2ccc(C(F)(F)F)cc2)Oc2c(NC(=O)C3CC3)cccc2C1=O has an AC40 of 0.387 µM.
COc1ccc(C)cc1S(=O)(=O)Nc1cccc(SC)c1 gave an AC40 of 0.582 µM.
For COc1ccccc1CNC(=O)C[C@H]1CC[C@H]2[C@H](COc3ccc(NS(=O)(=O)c4ccc(C)cc4)cc3C(=O)N2C)O1, the AC40 was 22.4 µM.
C[C@H](CO)N1C[C@H](C)[C@H](CN(C)Cc2ccc(C(=O)Nc3ccccc3N)cc2)Oc2ccc(NS(=O)(=O)c3cn(C)cn3)cc2CC1=O gave an AC40 of 27 µM.
Work on Cc1ccc(C)c(S(=O)(=O)NC(C)CCc2ccccc2)c1 (stereo unspecified) yielded an AC40 of 3.81 µM.
For C[C@@H]1CN([C@H](C)CO)C(=O)Cc2cc(NS(=O)(=O)c3ccc(Cl)cc3)ccc2O[C@@H]1CN(C)C(=O)Nc1ccc(C(F)(F)F)cc1, the AC40 was 6.38 µM.
With CN(Cc1ccccc1)S(=O)(=O)c1ccc(NC(=S)NC(=O)C2CCCCC2)cc1 the AC40 was 13.4 µM.
COc1ccc(NC(=O)c2cc(C)nc3ccccc23)cc1S(=O)(=O)Nc1ccccc1Cl showed an AC40 of 2.33 µM.
For Cc1ccc(S(=O)(=O)Nc2ccc(-n3cnnn3)cc2)c(C)c1, the AC40 was 0.759 µM.
With COc1ccc(NS(=O)(=O)c2cc(NC(=O)c3ccc(=O)[nH]c3)ccc2N2CCCC2)cc1 the AC40 was 0.424 µM.
COc1ccccc1NS(=O)(=O)c1cc(NC(=O)c2sccc2C)ccc1N1CCCC1 was tested, and the AC40 was 1.12 µM.
O=S(=O)(Nc1ccccc1)c1ccc(Oc2ncc(C(F)(F)F)cc2Cl)cc1 was tested, and the AC40 was 21.6 µM.
For COc1ccc(S(=O)(=O)NCCN2CCOCC2)c2ccccc12, the AC40 was 0.789 µM.
For COc1ccc(S(=O)(=O)N(C)C[C@H]2Oc3ccc(NC(=O)Cc4ccccc4)cc3C(=O)N([C@H](C)CO)C[C@H]2C)cc1, the AC40 was 2.75 µM.
Compound O=C(NCCCn1ccnc1)c1cc(-c2ccccc2)on1 has an AC40 of 28.8 µM.
CCOc1ccc(Br)cc1S(=O)(=O)Nc1ccc(Cl)c(S(=O)(=O)N(CC)c2ccccc2)c1 gave an AC40 of 4.18 µM.
C[C@@H]1CN([C@H](C)CO)C(=O)Cc2cc(N(C)C)ccc2O[C@@H]1CN(C)Cc1ccc(C(=O)Nc2ccccc2N)cc1 was tested, and the AC40 was 11.1 µM.
With CCN(CC)S(=O)(=O)c1cc(C(=O)N(C)CC(=O)Nc2ccc(Cl)cc2)ccc1Cl the AC40 was 13.9 µM.
Work on C=C(C)CN(CC)C(=O)COc1ccc(S(=O)(=O)Nc2ccc(OC)cc2)cc1 yielded an AC40 of 7.78 µM.
For C[C@H](CO)N1C[C@H](C)[C@@H](CN(C)Cc2cncnc2)Oc2cc(C#CC3CCCC3)ccc2S1(=O)=O, the AC40 was 0.805 µM.
CSc1nc(-c2ccc(C)cc2)[nH]c1S(=O)(=O)c1ccccc1 was tested, and the AC40 was 15.9 µM.
Work on CCc1ccc(-c2cc(C)no2)cc1S(=O)(=O)NCc1ccccc1OC yielded an AC40 of 3.11 µM.
CCC(C)(C)NC(=O)C(c1cccn1C)N(C(=O)Cn1nnc2ccccc21)c1ccc(OC)cc1OC (stereo unspecified) gave an AC40 of 21 µM.
COc1ccc(NS(=O)(=O)c2cc(-c3cnc(C4CC4)o3)ccc2C)cc1 was tested, and the AC40 was 5.35 µM.
Compound C[C@H](CO)N1C[C@H](C)[C@@H](CN(C)Cc2ccc(Cl)c(Cl)c2)Oc2c(NS(=O)(=O)c3cccs3)cccc2C1=O has an AC40 of 2.7 µM.
Compound COc1ccc(NC(=O)CCC(=O)c2cccs2)cc1S(=O)(=O)Nc1ccc(Cl)cc1 has an AC40 of 0.884 µM.
O=C(Nc1ccc(S(=O)(=O)NCCc2ccccc2)cc1)c1ccc(Br)o1 gave an AC40 of 0.54 µM.
CCOC(=O)c1c(C)[nH]c(C)c1S(=O)(=O)NCCc1ccco1 showed an AC40 of 2.96 µM.
For Cc1cccc(NS(=O)(=O)c2cc3c4c(c2)C(C)C(=O)N4CCC3)c1 (stereo unspecified), the AC40 was 1.93 µM.
Compound COc1cc(C)c(C(C)C)cc1S(=O)(=O)N1CCN(C)CC1 has an AC40 of 7.96 µM.
Compound Cc1cc(C)c(S(=O)(=O)NCCCn2ccnc2)cc1C has an AC40 of 1.45 µM.
Compound CCCCCCNS(=O)(=O)c1ccc(OC)c(OC)c1 has an AC40 of 4.67 µM.
With C[C@@H]1CN([C@H](C)CO)S(=O)(=O)c2ccc(-c3ccc(F)cc3)cc2O[C@@H]1CN(C)Cc1ccccc1C(=O)O the AC40 was 5.45 µM.
With Cc1cc(Cl)c(S(=O)(=O)Nc2ccc3c(c2)OCO3)cc1OCC(=O)NC1CCCCC1 the AC40 was 5.8 µM.
For COc1cc(S(=O)(=O)NC2CCCCC2)ccc1Cl, the AC40 was 2.18 µM.
Cc1c(C(=O)N2CCCCC2)c(S(=O)(=O)Nc2cccc(Br)c2)c(C)n1C gave an AC40 of 1.44 µM.
In the case of CCCNC(=O)NC[C@@H]1[C@@H](c2ccc(C3=CCCC3)cc2)[C@@H](CO)N1C(=O)CC, the AC40 is reported as 16.9 µM.
Work on C/C(=N\NC(=O)c1cccc(S(=O)(=O)Nc2cccc(Cl)c2)c1)c1cccs1 yielded an AC40 of 3.3 µM.
Compound COc1cc(S(=O)(=O)NC2CCCC2)c(OC)cc1C has an AC40 of 3.17 µM.
For COc1ccc(NS(=O)(=O)c2cc(N)ccc2N2CCOCC2)cc1, the AC40 was 6.74 µM.
In the case of Cc1ccc(S(=O)(=O)Nc2c(C)ccc3nsnc23)cc1, the AC40 is reported as 17.6 µM.
Work on Cc1cc(C(=O)Nc2cccc3c2O[C@H](CN(C)Cc2ccc(C(F)(F)F)cc2)[C@@H](C)CN([C@H](C)CO)C3=O)n(C)n1 yielded an AC40 of 0.943 µM.
With CN1CC(c2ccccc2Cl)C2(COc3ccccc3C2=O)C12C(=O)Nc1ccccc12 (stereo unspecified) the AC40 was 2.2 µM.
Compound CCOC(=O)c1c(C)[nH]c(C)c1S(=O)(=O)NCCCc1ccco1 has an AC40 of 5.96 µM.
Compound Cc1ccc(C(=O)NCCSc2ccccc2)cc1S(=O)(=O)Nc1ccccc1 has an AC40 of 4.09 µM.
O=C1c2ccccc2C2=Nc3ccccc3SC(c3ccccc3F)C12 (stereo unspecified) was tested, and the AC40 was 21 µM.
With O=C(N/N=C/c1cccs1)C(O)c1ccccc1 (stereo unspecified) the AC40 was 15.2 µM.
